Measurements from patent US11053235B2, “Substituted 1,4-dihydropyrimidines for the treatment of HBV infection or HBV-induced diseases” (Janssen Sciences Ireland Unlimited Company, priority 2018, dated 2021).

Experiments:
[1] = Cytotoxicity determination in HepG2.2.15 cells (CCK-8); type: cell-based; settings: human, 6 days treatment, CCK-8, highest concentration 100 uM
Description: (§1) Example 2: Anti-Viral Assay in HepG2.2.15 Cells
(§2) 1.1. Cell Line • HepG2.2.15 (the HepG2.2.15 cell line can be produced by transfection of the HepG2 cell line as described in Sells, Chen, and Acs 1987 (Proc. Natl. Acad. Sci. USA 84:1005-1009), and the HepG2 cell line is available from ATCC® under number HB-8065™). Reagents • DMEM/F12 (INVITROGEN-11330032) • FBS (GIBCO-10099-141) • Dimethyl sulfoxide(DMSO) (SIGMA-D2650) • Penicillin-streptomycin solution (HYCLONE-SV30010) • NEAA (INVITROGEN-1114050) • L-Glutamine (INVITROGEN-25030081) • Geneticin Selective Antibiotic (G418, 500 mg/ml) (INVITROGEN-10131027) • Trypsinase digestion solution (INVITROGEN-25300062) • CCK8 (BIOLOTE-35004) • QIAamp 96 DNA Blood Kit (12) (QIAGEN-51162) • FastStart Universal Probe Mast Mix (ROCHE-04914058001)
(§3) 2.1. HBV Inhibitory Activity and Cytotoxicity Determination
(§4) Seed the cell HepG2.2.15 cells into 96-well plate in 2% FBS culture medium at the density of 40,000 cells/well and 5,000 cells/well for HBV inhibitory activity and cytotoxicity determination, respectively. After seeding, incubate the cell plates at 37° C., 5% CO2 overnight. The next day, medium containing compounds is added to the cell to treat the cells for 6 days with medium refreshed once in the middle of the treatment. 8 dose points with 3 folds dilution of each compound were adopted and the highest concentration of the compounds is 10 uM and 100 uM for HBV inhibitory activity and cytotoxicity determination, respectively.
After 6 days of compounds treatment, add 20 μl CCK-8 reagents to each well of cytotoxicity assay plates, incubate the plate at 37° C., 5% CO2 for 2.5 h and measure the absorbance at 450 nm wavelength, at the same time read the absorbance at 630 nm wavelength as reference.
(§5) EC50 and CC50 values are calculated by the GRAPHPAD PRISM software.

HBV = assay: Anti-viral assay in HepG2.2.15 cells: HBV inhibitory activity (HBV DNA in culture medium by q-PCR); type: cell-based; settings: Hepatitis B virus, HepG2.2.15, 144 h, HepG2.2.15 cells, 6 days treatment, HBV DNA in culture medium by q-PCR, highest concentration 10 uM; read-out: EC50
Description: as §1, §2, §3, §4
The HBV DAN change in the cell culture medium induced by the compounds is measured by q-PCR method. Briefly, the HBV DNA in the culture medium is extracted using QIAamp 96 DNA Blood Kit according to the manual and then quantified by q-PCR using the primers and probe in the table below.
as §5

Row | Compound | CC50 at 6 days [1] [µM] | EC50 (HBV) [nM]
1 | CCOC(=O)C1=C([C@H]2CC[C@H](c3cc(C(=O)O)nn3C)CC2)NC(c2nccs2)=NC1c1ccc(F)c(F)c1Cl (single isomer, unassigned) [Compound I-35-C, (trans)-5-(4-(6-(2-chloro-3,4-difluorophenyl)-5-(ethoxycarbonyl)-2-(thiazol-2-yl)-3,6-dihydropyrimidin-4-yl)cyclohexyl)-1-methyl-1H-pyrazole-3-carboxylic Acid] | 7.16 | 63
2 | CCOC(=O)C1=C([C@H]2CC[C@H](c3cc(C(=O)O)n(C)n3)CC2)NC(c2nccs2)=NC1c1ccc(F)c(F)c1Cl (single isomer, unassigned) [Compound I-36-B, (trans)-3-(4-(6-(2-Chloro-3,4-difluorophenyl)-5-(ethoxycarbonyl)-2-(thiazol-2-yl)-3,6-dihydropyrimidin-4-yl)cyclohexyl)-1-methyl-1H-pyrazole-5-carboxylic Acid] | 5.94 | 6.2
3 | CCOC(=O)C1=C([C@H]2CC[C@H](c3cnn(CC(C)(C)C(=O)O)c3)CC2)NC(c2nccs2)=NC1c1ccc(F)c(F)c1Cl (single isomer, unassigned) [Compound I-37-C, (trans)-3-(4-(4-(6-(2-Chloro-3,4-difluorophenyl)-5-(ethoxycarbonyl)-2-(thiazol-2-yl)-3,6-dihydropyrimidin-4-yl)cyclohexyl)-1H-pyrazol-1-yl)-2,2-dimethylpropanoic Acid] | 2.22 | 8.3
4 | CCOC(=O)C1=C([C@H]2CC[C@H](n3cc(C(=O)O)cn3)CC2)NC(c2nccs2)=NC1c1ccc(F)c(F)c1Cl (single isomer, unassigned) [Compound I-38-B, (trans)-1-(4-(6-(2-Chloro-3,4-difluorophenyl)-5-(ethoxycarbonyl)-2-(thiazol-2-yl)-3,6-dihydropyrimidin-4-yl)cyclohexyl)-1H-pyrazole-4-carboxylic Acid] | 11.3 | < 4.6
5 | CCOC(=O)C1=C([C@H]2CC[C@@H](n3nccc3C(=O)O)CC2)NC(c2nccs2)=NC1c1ccc(F)c(F)c1Cl (single isomer, unassigned) [Compound I-39-B, (cis)-1-(4-(6-(2-Chloro-3,4-difluorophenyl)-5-(ethoxycarbonyl)-2-(thiazol-2-yl)-3,6-dihydropyrimidin-4-yl)cyclohexyl)-1H-pyrazole-5-carboxylic Acid] | 7.59 | 82
6 | CCOC(=O)C1=C([C@H]2CC[C@H](n3nccc3C(=O)O)CC2)NC(c2nccs2)=NC1c1ccc(F)c(F)c1Cl (single isomer, unassigned) [Compound I-39-C, (trans)-1-(4-(6-(2-Chloro-3,4-difluorophenyl)-5-(ethoxycarbonyl)-2-(thiazol-2-yl)-3,6-dihydropyrimidin-4-yl)cyclohexyl)-1H-pyrazole-5-carboxylic Acid] | 7.75 | 110
7 | CCOC(=O)C1=C([C@H]2CC[C@H](c3ncc(C(=O)O)cn3)CC2)NC(c2nccs2)=NC1c1ccc(F)c(F)c1Cl (single isomer, unassigned) [Compound I-40-A, (trans)-2-(4-(6-(2-Chloro-3,4-difluorophenyl)-5-(ethoxycarbonyl)-2-(thiazol-2-yl)-3,6-dihydropyrimidin-4-yl)cyclohexyl)pyrimidine-5-carboxylic Acid] | 4.43 | < 4.6
8 | CCOC(=O)C1=C([C@H]2CC[C@H](c3nc(C(=O)O)cs3)CC2)NC(c2nccs2)=NC1c1ccc(F)c(F)c1Cl (single isomer, unassigned) [Compound I-41-B, (trans)-2-(4-(6-(2-Chloro-3,4-difluorophenyl)-5-(ethoxycarbonyl)-2-(thiazol-2-yl)-3,6-dihydropyrimidin-4-yl)cyclohexyl)thiazole-4-carboxylic Acid] | 1.02 | 17
9 | CCOC(=O)C1=C([C@H]2CC[C@H](c3cc(C(=O)O)no3)CC2)NC(c2nccs2)=NC1c1ccc(F)c(F)c1Cl (single isomer, unassigned) [Compound I-42-B, (trans)-5-(4-(6-(2-Chloro-3,4-difluorophenyl)-5-(ethoxycarbonyl)-2-(thiazol-2-yl)-3,6-dihydropyrimidin-4-yl)cyclohexyl)isoxazole-3-carboxylic Acid] | 10.8 | 83
10 | CCOC(=O)C1=C([C@H]2CC[C@H](c3cc(C(=O)O)on3)CC2)NC(c2nccs2)=NC1c1ccc(F)c(F)c1Cl (single isomer, unassigned) [Compound I-43-B] | 13.7 | 29
11 | CCOC(=O)C1=C([C@H]2CC[C@H](c3ccc(C(=O)O)cc3)CC2)NC(c2nccs2)=NC1c1ccc(F)c(F)c1Cl (single isomer, unassigned) [Compound I-44-A, (trans)-4-(4-(6-(2-Chloro-3,4-difluorophenyl)-5-(ethoxycarbonyl)-2-(thiazol-2-yl)-3,6-dihydropyrimidin-4-yl)cyclohexyl)benzoic Acid] | 1.81 | 8.5
12 | COC(=O)C1=C([C@H]2CC[C@H](c3ncc(C4(C(=O)O)CC4)cn3)CC2)NC(c2nccs2)=NC1c1ccc(F)c(F)c1Cl (single isomer, unassigned) [Compound I-46-C, 1-(2-((trans)-4-(6-(2-chloro-3,4-difluorophenyl)-5-(methoxycarbonyl)-2-(thiazol-2-yl)-3,6-dihydropyrimidin-4-yl)cyclohexyl)pyrimidin-5-yl)cyclopropanecarboxylic Acid] | 16.1 | 15
13 | COC(=O)C1=C([C@H]2CC[C@H](c3ncc(C)c(C(=O)O)n3)CC2)NC(c2nccs2)=NC1c1ccc(F)c(F)c1Br (single isomer, unassigned) [Compound I-47-D, 2-((Trans)-4-(6-(2-bromo-3,4-difluorophenyl)-5-(methoxycarbonyl)-2-(thiazol-2-yl)-3,6-dihydropyrimidin-4-yl)cyclohexyl)-5-methylpyrimidine-4-carboxylic Acid] | 19.3 | 5.9
14 | COC(=O)C1=C([C@H]2CC[C@H](c3nc(CC(=O)O)c(C)o3)CC2)NC(c2nccs2)=NC1c1ccc(F)cc1Cl (single isomer, unassigned) [Compound I-48-B, (trans)-2-(2-(4-(6-(2-Chloro-4-fluorophenyl)-5-(methoxycarbonyl)-2-(thiazol-2-yl)-3,6-dihydropyrimidin-4-yl)cyclohexyl)-5-methyloxazol-4-yl)acetic Acid] | 23 | 22
15 | COC(=O)C1=C([C@H]2CC[C@H](c3ncc(CC(=O)O)cn3)CC2)NC(c2nccs2)=NC1c1ccc(F)c(F)c1Cl (single isomer, unassigned) [Compound I-49-A, 2-(2-((trans)-4-(6-(2-chloro-3,4-difluorophenyl)-5-(methoxycarbonyl)-2-(thiazol-2-yl)-3,6-dihydropyrimidin-4-yl)cyclohexyl)pyrimidin-5-yl)acetic Acid] | 24.7 | 11
16 | COC(=O)C1=C([C@H]2CC[C@H](c3ncc(CC(=O)O)cn3)CC2)NC(c2nccs2)=NC1c1ccc(F)cc1Cl (single isomer, unassigned) [Compound I-50-A, 2-(2-((trans)-4-(6-(2-chloro-4-fluorophenyl)-5-(methoxycarbonyl)-2-(thiazol-2-yl)-3,6-dihydropyrimidin-4-yl)cyclohexyl)pyrimidin-5-yl)acetic Acid] | 16.4 | 11
